What was measured:
Caco-2 cells [1] = assay: Transport across Caco-2 cell monolayer (literature); assay type: in vitro ADME, human; details: corresponds to the literature value
[2] = tested on: hiPSC-derived enterocytes
Caco-2 cells [3] = details: cited from earlier work
CYP3A4 = CYP3A4 (Homo sapiens, UniProt P08684); assay: CYP metabolism assay (midazolam hydroxylation, LC-MS/MS) in hiPS-derived enterocytes; details: day 21 of differentiation, 120 min incubation
CYP3A4 expression = assay: CYP3A4 mRNA expression in hiPSC-derived enterocytes by real time PCR; assay type: cell-based, human; details: day 21 of differentiation
Method: For intestine differentiation, the day 10 intestinal precursor cell stock was freeze thawed, and plated onto a rehydrated vitrigel membrane (CVM) 24-well insert (ad-MED Vitrigel™ 2, KANTO KAGAKU, culture area: 0.33 cm^2/insert) in M2 medium at a concentration of 1.6×10^5 cells/well. Y-27632 (WAKO: 251-00514) was added to the medium upon plating for the first 2 days. The cells were cultured in M2 until day 15. A volume of the medium was 200 μL for an upper layer and 700 μL for a lower layer of the cell culture insert. The medium was changed to M3-1 or M3-2 for days 15 to 21, or up to day 30. The medium was replaced every 2 days with a fresh medium.
M3-1 medium: William's Medium E supplemented with L-glutamine, HCM SingleQuots (containing neither GA1000 nor human EGF) (Lonza, CC-4182), 1% PS (Nacalai), 10 ng/ml recombinant human HGF (PeproTech 100-39), 1 μM dexamethasone (Sigma-Aldrich, D8893), 1.4 μM BIO, and 1 M calcitriol (Sigma-Aldrich, D1530). […]
For a reverse transcription reaction, 2.5 μg of RNA was reverse-transcribed using PrimeScript™ RT Master Mix (Takara, Japan). For real-time PCR analysis, mRNA expression was quantified with SyberGreen on a StepOne Plus (Applied Biosystems, Foster City, Calif.). […] A target mRNA level was expressed as an arbitrary unit, and was determined using the ΔΔ CT method.

P-gp = P-gp (Homo sapiens, UniProt P08183)
Chain of P-gp (P08183 whole entry): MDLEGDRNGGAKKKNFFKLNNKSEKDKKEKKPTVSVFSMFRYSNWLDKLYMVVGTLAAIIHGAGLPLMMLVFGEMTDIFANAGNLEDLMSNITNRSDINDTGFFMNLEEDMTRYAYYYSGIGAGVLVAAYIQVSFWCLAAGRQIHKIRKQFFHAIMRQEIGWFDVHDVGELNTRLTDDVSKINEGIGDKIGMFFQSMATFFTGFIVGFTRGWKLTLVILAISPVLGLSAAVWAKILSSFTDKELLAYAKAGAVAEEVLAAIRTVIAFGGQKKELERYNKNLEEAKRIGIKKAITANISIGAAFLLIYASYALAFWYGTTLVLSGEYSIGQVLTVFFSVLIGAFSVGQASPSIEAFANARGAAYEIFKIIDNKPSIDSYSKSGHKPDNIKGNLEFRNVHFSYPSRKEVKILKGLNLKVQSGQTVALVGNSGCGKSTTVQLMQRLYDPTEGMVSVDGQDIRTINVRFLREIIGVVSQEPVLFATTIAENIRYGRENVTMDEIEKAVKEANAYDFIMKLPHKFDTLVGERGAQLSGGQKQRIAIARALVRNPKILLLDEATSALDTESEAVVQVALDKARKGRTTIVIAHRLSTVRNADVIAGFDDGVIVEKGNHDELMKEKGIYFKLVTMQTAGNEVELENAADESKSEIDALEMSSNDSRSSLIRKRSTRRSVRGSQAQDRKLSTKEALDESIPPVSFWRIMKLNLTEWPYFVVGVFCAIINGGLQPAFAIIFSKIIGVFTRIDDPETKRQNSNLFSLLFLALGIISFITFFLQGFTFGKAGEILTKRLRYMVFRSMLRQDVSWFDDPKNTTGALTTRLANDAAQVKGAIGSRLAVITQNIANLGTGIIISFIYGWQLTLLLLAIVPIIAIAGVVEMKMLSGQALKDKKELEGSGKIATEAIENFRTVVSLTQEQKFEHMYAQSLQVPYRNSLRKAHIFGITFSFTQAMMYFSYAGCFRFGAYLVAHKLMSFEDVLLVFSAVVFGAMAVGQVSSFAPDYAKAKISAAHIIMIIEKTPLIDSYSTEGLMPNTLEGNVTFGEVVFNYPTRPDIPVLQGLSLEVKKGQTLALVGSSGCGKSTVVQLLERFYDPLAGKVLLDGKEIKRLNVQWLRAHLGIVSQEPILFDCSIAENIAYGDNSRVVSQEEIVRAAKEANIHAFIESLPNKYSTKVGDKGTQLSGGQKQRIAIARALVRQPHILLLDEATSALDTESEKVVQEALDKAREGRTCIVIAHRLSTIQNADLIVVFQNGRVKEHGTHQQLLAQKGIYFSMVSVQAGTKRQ

Chain of CYP3A4 (P08684 whole entry): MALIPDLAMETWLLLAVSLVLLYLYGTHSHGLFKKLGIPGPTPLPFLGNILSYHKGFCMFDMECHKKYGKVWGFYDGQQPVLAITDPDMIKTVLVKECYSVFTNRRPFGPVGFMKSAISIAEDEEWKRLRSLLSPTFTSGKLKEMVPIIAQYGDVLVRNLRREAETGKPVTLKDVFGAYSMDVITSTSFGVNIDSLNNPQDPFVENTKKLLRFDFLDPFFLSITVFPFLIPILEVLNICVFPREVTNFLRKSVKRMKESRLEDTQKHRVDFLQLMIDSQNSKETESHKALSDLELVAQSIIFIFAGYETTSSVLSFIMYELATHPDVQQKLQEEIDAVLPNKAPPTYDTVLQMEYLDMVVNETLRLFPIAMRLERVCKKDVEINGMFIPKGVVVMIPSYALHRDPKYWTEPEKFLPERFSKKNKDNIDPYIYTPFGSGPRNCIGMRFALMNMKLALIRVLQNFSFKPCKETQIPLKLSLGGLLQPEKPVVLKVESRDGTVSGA

CC(C)NCC(O)COc1cccc2ccccc12 (centres unmarked) [propranolol]
transcellular transport in the Caco-2 cells, converted (Caco-2 cells [1]): approximately 99.4 μL/120 min/well
transcellular transport (present result) ([2]; human, 120 min, 0.1 μCi/3 mL, pH 7.4): 48 μL/120 min/well
transcellular transport in the Caco-2 cells (Caco-2 cells [3]; Artursson 1990): 4.19e-05 cm/s

OC[C@@H](O)[C@@H](O)[C@H](O)[C@H](O)CO [mannitol]
directional transport across a cell monolayer [2]: directional transport of neither propranolol nor mannitol across a cell monolayer was observed
transport clearance across a Caco-2 cell monolayer (paracellular) (Caco-2 cells [3]; Cogburn et al. 1991): 3 %/cm^2/hr

Cc1ncc2n1-c1ccc(Cl)cc1C(c1ccccc1F)=NC2 [midazolam]
clearance rate of formation of 1′-OH midazolam (CYP3A4): 0.773 μL/min/mg cellular protein

C=C1/C(=C\C=C2/CCC[C@]3(C)[C@@H]([C@H](C)CCCC(C)(C)O)CC[C@@H]23)C[C@@H](O)C[C@@H]1O [calcitriol]
CYP3A4 expression when calcitriol is removed from M3-2 medium (CYP3A4 expression): minimally expressed CYP3A4

C[C@H]1O[C@@H](O[C@H]2[C@@H](O)C[C@H](O[C@H]3[C@@H](O)C[C@H](O[C@H]4CC[C@@]5(C)[C@H](CC[C@@H]6[C@@H]5C[C@@H](O)[C@]5(C)[C@@H](C7=CC(=O)OC7)CC[C@]65O)C4)O[C@@H]3C)O[C@@H]2C)C[C@H](O)[C@@H]1O [digoxin]
directional B-to-A transport compared with A-to-B transport (P-gp): at a level higher than apical-to-basal transport
